According to ChEMBL document CHEMBL5113448, “Synthesis and biological evaluation of 4H-benzo[e][1,3]oxazin-4-ones analogues of TGX-221 as inhibitors of PI3Kβ” (Bioorg Med Chem, 2022):

Experiments:
[1] = biological target: Phosphatidylinositol 4,5-bisphosphate 3-kinase catalytic subunit beta isoform (Homo sapiens, UniProt P42338); test: Inhibition of PI3Kbeta (unknown origin) incubated for 60 mins in the presence of ATP by Kinase-Glo luminescence assay
[2] = biological target: T1, Phosphatidylinositol 4,5-bisphosphate 3-kinase catalytic subunit delta isoform (Homo sapiens) (UniProt O00329); test: Inhibition of PI3Kdelta (unknown origin) at 10 uM relative to control
T1 sequence (whole entry): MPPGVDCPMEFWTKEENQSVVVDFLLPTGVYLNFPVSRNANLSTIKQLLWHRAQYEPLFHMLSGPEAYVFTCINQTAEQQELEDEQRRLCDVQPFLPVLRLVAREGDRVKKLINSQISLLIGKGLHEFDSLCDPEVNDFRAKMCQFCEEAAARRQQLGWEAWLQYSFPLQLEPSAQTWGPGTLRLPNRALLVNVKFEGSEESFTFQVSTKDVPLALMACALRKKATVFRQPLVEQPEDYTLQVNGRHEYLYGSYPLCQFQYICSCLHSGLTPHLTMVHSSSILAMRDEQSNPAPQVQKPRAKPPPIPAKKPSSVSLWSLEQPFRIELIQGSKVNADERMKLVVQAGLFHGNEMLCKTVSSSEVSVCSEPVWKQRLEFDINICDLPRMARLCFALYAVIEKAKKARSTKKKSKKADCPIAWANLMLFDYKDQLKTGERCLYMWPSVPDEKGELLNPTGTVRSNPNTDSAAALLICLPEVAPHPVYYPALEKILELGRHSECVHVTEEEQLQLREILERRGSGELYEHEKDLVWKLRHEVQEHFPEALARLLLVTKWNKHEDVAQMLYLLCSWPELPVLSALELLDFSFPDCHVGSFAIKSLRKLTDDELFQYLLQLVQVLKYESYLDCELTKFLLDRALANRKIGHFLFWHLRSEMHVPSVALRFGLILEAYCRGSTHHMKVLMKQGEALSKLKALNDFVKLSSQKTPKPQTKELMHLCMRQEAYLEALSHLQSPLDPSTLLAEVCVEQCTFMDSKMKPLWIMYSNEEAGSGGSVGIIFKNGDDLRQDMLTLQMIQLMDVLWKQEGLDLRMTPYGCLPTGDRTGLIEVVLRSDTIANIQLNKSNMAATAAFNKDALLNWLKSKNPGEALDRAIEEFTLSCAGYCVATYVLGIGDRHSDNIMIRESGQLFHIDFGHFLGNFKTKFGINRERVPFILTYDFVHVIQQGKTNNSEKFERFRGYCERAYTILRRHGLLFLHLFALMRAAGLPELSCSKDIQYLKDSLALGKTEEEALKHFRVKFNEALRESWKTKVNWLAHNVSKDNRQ

[3] = biological target: DNA-dependent protein kinase catalytic subunit (Homo sapiens, UniProt P78527); test: Inhibition of DNA-PK (unknown origin) in the presence of ATP
Chain of DNA-dependent protein kinase catalytic subunit (P78527 whole entry): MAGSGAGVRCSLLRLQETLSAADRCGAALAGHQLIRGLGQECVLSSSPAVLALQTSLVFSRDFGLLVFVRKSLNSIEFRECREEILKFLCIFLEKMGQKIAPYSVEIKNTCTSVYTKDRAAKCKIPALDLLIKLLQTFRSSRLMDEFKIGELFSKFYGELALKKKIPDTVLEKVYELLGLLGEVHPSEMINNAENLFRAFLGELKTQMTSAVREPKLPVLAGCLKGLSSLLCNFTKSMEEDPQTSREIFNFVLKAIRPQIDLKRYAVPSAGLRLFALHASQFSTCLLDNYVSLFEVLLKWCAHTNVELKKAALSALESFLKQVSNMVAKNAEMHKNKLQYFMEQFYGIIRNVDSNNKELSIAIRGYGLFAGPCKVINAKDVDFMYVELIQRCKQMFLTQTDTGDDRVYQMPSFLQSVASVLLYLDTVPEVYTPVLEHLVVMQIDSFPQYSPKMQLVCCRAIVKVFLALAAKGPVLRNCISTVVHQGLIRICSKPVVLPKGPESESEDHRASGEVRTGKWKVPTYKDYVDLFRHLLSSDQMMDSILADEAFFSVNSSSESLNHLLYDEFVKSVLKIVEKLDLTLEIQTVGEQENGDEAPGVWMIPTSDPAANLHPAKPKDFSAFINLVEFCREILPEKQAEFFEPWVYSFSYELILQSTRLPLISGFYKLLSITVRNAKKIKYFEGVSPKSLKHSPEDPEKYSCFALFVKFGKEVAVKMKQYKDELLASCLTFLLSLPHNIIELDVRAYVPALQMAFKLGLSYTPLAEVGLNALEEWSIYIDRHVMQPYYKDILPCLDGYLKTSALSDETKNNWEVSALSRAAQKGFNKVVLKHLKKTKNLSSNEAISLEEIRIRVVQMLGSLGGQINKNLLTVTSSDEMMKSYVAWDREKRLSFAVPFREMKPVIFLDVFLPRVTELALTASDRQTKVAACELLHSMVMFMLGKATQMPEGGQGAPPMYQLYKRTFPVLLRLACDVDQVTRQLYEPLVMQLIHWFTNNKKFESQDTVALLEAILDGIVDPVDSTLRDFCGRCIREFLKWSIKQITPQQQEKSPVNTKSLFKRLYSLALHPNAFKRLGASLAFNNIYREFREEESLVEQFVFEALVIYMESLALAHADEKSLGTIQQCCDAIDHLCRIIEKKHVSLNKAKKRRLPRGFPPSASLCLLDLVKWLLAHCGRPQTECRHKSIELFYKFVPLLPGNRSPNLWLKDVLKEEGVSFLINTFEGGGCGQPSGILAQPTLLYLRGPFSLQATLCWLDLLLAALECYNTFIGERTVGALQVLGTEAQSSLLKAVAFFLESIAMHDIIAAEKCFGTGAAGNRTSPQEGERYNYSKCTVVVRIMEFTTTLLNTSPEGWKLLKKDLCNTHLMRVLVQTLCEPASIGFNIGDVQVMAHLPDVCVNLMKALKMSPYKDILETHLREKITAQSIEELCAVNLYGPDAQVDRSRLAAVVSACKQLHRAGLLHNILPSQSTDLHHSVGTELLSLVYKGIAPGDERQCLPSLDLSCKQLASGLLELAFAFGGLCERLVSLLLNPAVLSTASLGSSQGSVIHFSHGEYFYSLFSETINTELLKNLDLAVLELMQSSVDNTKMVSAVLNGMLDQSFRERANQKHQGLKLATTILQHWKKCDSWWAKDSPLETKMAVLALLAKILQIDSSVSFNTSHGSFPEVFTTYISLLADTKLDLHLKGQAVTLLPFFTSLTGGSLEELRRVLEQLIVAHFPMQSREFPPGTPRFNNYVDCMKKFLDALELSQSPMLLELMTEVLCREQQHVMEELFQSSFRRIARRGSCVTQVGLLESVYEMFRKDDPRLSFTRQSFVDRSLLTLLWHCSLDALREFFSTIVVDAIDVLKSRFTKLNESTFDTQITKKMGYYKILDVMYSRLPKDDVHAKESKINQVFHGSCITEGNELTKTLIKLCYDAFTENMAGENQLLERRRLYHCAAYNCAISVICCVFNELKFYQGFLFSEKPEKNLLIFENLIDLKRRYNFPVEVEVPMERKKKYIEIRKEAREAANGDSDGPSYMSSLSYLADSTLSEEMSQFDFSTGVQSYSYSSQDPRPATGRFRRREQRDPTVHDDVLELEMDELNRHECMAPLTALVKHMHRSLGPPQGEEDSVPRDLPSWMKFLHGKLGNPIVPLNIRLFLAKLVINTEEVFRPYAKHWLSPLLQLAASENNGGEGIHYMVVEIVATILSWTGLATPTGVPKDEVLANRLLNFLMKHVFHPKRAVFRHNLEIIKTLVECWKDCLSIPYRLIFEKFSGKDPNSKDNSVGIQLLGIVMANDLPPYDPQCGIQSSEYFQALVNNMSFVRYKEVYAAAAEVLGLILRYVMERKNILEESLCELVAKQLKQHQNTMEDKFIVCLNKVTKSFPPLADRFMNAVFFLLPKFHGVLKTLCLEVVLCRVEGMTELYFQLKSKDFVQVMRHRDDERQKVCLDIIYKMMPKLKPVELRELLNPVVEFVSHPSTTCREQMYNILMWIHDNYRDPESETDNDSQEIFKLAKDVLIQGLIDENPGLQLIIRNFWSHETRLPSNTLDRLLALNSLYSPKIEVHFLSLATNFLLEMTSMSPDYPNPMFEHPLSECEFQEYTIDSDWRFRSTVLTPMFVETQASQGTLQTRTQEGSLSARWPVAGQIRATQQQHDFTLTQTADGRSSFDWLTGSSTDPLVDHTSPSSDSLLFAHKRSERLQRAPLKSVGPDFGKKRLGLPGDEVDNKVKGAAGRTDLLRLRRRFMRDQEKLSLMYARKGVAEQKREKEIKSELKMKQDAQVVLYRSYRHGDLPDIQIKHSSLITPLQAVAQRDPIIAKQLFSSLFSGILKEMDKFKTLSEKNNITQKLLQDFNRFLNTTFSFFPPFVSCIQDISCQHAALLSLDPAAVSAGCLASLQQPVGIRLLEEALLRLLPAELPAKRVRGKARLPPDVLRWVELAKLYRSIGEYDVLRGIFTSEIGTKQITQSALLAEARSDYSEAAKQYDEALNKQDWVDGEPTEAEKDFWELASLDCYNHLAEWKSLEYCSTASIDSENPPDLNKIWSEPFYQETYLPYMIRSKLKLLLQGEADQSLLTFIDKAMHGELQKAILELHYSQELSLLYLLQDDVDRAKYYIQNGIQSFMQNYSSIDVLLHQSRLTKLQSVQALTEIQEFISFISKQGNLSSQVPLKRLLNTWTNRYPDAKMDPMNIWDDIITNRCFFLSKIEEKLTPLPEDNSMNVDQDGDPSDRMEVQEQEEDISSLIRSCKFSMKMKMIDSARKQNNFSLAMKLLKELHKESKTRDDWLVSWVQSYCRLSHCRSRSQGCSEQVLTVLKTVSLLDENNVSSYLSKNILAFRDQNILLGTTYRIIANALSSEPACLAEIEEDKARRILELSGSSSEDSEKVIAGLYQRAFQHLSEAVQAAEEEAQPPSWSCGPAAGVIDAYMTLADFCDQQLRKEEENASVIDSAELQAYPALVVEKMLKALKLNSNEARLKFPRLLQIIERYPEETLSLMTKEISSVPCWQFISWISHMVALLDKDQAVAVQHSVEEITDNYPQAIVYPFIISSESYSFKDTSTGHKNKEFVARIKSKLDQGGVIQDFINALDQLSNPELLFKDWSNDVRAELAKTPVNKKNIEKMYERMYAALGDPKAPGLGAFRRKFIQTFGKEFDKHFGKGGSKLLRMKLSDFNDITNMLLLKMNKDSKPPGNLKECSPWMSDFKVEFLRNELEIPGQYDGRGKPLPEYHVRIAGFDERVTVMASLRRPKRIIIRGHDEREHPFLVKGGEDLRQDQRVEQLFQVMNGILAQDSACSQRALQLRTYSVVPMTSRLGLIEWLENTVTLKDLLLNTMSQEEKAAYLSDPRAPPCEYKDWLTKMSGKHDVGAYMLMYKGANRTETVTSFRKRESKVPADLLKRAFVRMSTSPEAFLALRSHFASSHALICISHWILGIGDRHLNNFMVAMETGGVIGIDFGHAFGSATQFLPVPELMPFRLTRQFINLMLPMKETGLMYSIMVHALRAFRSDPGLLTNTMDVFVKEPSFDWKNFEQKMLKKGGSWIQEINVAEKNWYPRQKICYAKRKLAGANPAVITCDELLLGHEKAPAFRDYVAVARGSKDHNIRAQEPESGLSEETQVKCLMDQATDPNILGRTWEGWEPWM

Chain of Phosphatidylinositol 4,5-bisphosphate 3-kinase catalytic subunit beta isoform (P42338 whole entry, canonical isoform): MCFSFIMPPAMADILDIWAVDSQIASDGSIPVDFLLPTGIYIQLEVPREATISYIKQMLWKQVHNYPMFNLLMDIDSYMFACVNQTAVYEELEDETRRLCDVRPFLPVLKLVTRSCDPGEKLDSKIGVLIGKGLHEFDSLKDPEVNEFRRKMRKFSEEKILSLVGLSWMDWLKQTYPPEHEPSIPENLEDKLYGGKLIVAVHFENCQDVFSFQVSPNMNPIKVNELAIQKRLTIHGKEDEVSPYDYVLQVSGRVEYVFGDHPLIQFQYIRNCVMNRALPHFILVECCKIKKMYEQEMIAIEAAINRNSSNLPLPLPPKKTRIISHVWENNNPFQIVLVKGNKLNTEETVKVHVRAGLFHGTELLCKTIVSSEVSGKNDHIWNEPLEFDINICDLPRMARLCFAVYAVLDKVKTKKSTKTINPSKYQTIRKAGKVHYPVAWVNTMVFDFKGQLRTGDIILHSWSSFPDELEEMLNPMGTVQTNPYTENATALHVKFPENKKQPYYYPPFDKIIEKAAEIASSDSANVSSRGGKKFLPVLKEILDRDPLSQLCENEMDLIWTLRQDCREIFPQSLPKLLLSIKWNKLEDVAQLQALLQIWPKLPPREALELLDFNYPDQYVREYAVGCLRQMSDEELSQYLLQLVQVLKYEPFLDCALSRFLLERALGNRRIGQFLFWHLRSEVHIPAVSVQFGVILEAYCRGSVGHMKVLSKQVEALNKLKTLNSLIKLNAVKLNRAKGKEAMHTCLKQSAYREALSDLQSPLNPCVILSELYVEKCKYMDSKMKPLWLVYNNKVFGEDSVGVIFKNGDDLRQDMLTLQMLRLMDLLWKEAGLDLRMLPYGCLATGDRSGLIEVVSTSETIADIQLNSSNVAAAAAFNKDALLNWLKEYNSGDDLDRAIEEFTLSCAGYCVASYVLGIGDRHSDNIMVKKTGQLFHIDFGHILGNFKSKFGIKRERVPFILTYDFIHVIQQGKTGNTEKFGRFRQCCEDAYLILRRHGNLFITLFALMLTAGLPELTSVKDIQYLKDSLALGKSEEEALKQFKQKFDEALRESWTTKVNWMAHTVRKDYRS

IC50 [1] | inhibition [2] | IC50 [3] | SMILES
> 20000 nM | – | – | Cc1ccc(OC(C)c2cc(C)cc3c(=O)nc(N4CCOCC4)oc23)cc1 (stereo unspecified)
62.7 nM | – | – | Cc1cc(C(C)Nc2ccc(F)c(F)c2)c2oc(N3CCOCC3)nc(=O)c2c1 (stereo unspecified)
227 nM | – | – | Cc1cc(C(C)Oc2ccccc2C)c2oc(N3CCOCC3)nc(=O)c2c1 (stereo unspecified)
> 20000 nM | – | – | COc1ccc(OC(C)c2cc(C)cc3c(=O)nc(N4CCOCC4)oc23)cc1 (stereo unspecified)
70 nM | – | – | Cc1cc(C(C)Nc2cc(F)ccc2F)c2oc(N3CCOCC3)nc(=O)c2c1 (stereo unspecified)
2440 nM | – | – | Cc1cccc(OC(C)c2cc(C)cc3c(=O)nc(N4CCOCC4)oc23)c1 (stereo unspecified)
272 nM | – | – | Cc1cc(C(C)Nc2cccc(Cl)c2F)c2oc(N3CCOCC3)nc(=O)c2c1 (stereo unspecified)
49.2 nM | – | – | Cc1cc(C(C)Nc2cccc3ccccc23)c2oc(N3CCOCC3)nc(=O)c2c1 (stereo unspecified)
> 20000 nM | – | – | Cc1cc(C(C)Oc2ccc(Cl)c(C)c2)c2oc(N3CCOCC3)nc(=O)c2c1 (stereo unspecified)
1880 nM | – | – | COc1cccc(OC(C)c2cc(C)cc3c(=O)nc(N4CCOCC4)oc23)c1 (stereo unspecified)
72.7 nM | – | – | Cc1cc(C(C)Nc2cccc(Cl)c2)c2oc(N3CCOCC3)nc(=O)c2c1 (stereo unspecified)
240 nM | 87% | – | Cc1cc(C(C)Nc2ccccc2)c2oc(N3CCOCC3)nc(=O)c2c1 (stereo unspecified)
281 nM | – | – | Cc1cc(C(C)Nc2ccc(F)cc2F)c2oc(N3CCOCC3)nc(=O)c2c1 (stereo unspecified)
– | – | 120 nM | Cc1cc(C(C)Nc2ccccc2)c2oc(N3CCOCC3)cc(=O)c2c1 (stereo unspecified)
1430 nM | – | – | Cc1cc(C(C)Oc2ccccc2)c2oc(N3CCOCC3)nc(=O)c2c1 (stereo unspecified)
136 nM | – | – | Cc1cc(C(C)Nc2ccccc2Cl)c2oc(N3CCOCC3)nc(=O)c2c1 (stereo unspecified)
12600 nM | – | – | Cc1cc(C(C)Nc2ccc(Br)cc2)c2oc(N3CCOCC3)nc(=O)c2c1 (stereo unspecified)
152 nM | – | – | Cc1cc(C(C)Nc2cc(F)cc(F)c2)c2oc(N3CCOCC3)nc(=O)c2c1 (stereo unspecified)
1220 nM | – | – | Cc1cc(C(C)Nc2c(F)cccc2F)c2oc(N3CCOCC3)nc(=O)c2c1 (stereo unspecified)
> 20000 nM | – | – | Cc1cc(C(C)Oc2cc(C)c(Cl)c(C)c2)c2oc(N3CCOCC3)nc(=O)c2c1 (stereo unspecified)
